Literature values in article PMC12805357, “Cooperative ligand binding in a bacterial heme-based oxygen sensor” (The Journal of Biological Chemistry, 2025).
pKd: −log10 of the molar value.

Assays:
[1] = sperm whale myoglobin
[2] = design: method as in earlier work; settings: myoglobins; ref 7 of the supplement (Faulkner et al., 1995)

Substance: sperm whale myoglobin (swMb): sperm whale myoglobin, literature comparison protein
- n (Hill coefficient), O2 binding [1]: 0.95 ± 0.05
- pKd ([1]; read-out: Kd, equilibrium oxygen affinity): 5.82 to 6.08
- Midpoint 1 (mV vs SHE) [2]: 47 mV vs SHE
